# Results from PubChem BioAssay AID308 (DTP/NCI, 2004).
# Several values for one entry are separate records, joined by “and”; a condition that tells them apart may be missing. Identical values can stand only once. Toxic doses and inconclusive results are not listed.
# Tested on: BDF1 mice, L1210 6-MP/6-TG resistant leukemia ip, survival T/C
# Assay: NCI In Vivo Anticancer Drug Screen. Data for tumor model L1210 Leukemia resistant to 6-MP and 6-Thioguanine; NSC 755, NSC 752 (intraperitoneal) in B6D2F1 (BDF1) mice
# Settings: endpoint: mean survival time, higher = longer survival
# Procedure: The antitumor activity of compounds was measured in mice bearing transplantable tumors. Survival or tumor size were measured and the results are expressed as the measurement made in the treated group (T) divided by the measurement made in the vehicle treated control group (C). The tumor model used in this assay is L1210 Leukemia resistant to 6-MP and 6-Thioguanine; NSC 755, NSC 752 (intraperitoneal) in B6D2F1 (BDF1) mice
# [1] = dose: 12.5 mg/kg/injection, schedule: Q01DX Z (ip), vehicle: carboxymethylcellulose (CMC)
# [2] = dose: 25.0 mg/kg/injection, schedule: Q01DX Z (ip), vehicle: carboxymethylcellulose (CMC)
# [3] = dose: 50.0 mg/kg/injection, schedule: Q01DX Z (ip), vehicle: carboxymethylcellulose (CMC)
# [4] = dose: 100.0 mg/kg/injection, schedule: Q01DX Z (ip), vehicle: carboxymethylcellulose (CMC)
compound,measurement,setting,value
S=c1nc[nH]c2nc[nH]c12,T/C,"dose: 3.5 mg/kg/injection, schedule: Q01DX Z (ip), vehicle: carboxymethylcellulose (CMC)",99 % of control
same,T/C,"dose: 5.0 mg/kg/injection, schedule: Q01DX015 (ip), vehicle: carboxymethylcellulose (CMC)",93 % of control and 101 % of control
same,T/C,"dose: 7.0 mg/kg/injection, schedule: Q01DX Z (ip), vehicle: carboxymethylcellulose (CMC)",100 % of control and 103 % of control and 106 % of control
same,T/C,"dose: 8.0 mg/kg/injection, schedule: Q01DX015 (ip), vehicle: carboxymethylcellulose (CMC)",94 % of control and 97 % of control and 103 % of control
same,T/C,"dose: 10.0 mg/kg/injection, schedule: Q01DX015 (ip), vehicle: alkali diluted with saline",96 % of control
same,T/C,"dose: 12.0 mg/kg/injection, schedule: Q01DX015 (ip), vehicle: carboxymethylcellulose (CMC)",90 % of control and 95 % of control and 96 % of control
same,T/C,"dose: 12.0 mg/kg/injection, schedule: Q01DX Z (ip), vehicle: carboxymethylcellulose (CMC)",110 % of control
same,T/C,[1],95 % of control
same,T/C,"dose: 14.0 mg/kg/injection, schedule: Q01DX Z (ip), vehicle: carboxymethylcellulose (CMC)",96 % of control and 98 % of control and 104 % of control
same,T/C,"dose: 16.0 mg/kg/injection, schedule: Q01DX015 (ip), vehicle: carboxymethylcellulose (CMC)",95 % of control
same,T/C,"dose: 18.0 mg/kg/injection, schedule: Q01DX015 (ip), vehicle: carboxymethylcellulose (CMC)",93 % of control and 100 % of control
same,T/C,"dose: 19.0 mg/kg/injection, schedule: Q01DX Z (ip), vehicle: carboxymethylcellulose (CMC)",123 % of control
same,T/C,"dose: 20.0 mg/kg/injection, schedule: Q01DX015 (ip), vehicle: alkali diluted with saline",103 % of control
same,T/C,"dose: 20.0 mg/kg/injection, schedule: Q01DX015 (ip), vehicle: carboxymethylcellulose (CMC)",96 % of control
same,T/C,"dose: 20.0 mg/kg/injection, schedule: Q01DX Z (ip), vehicle: carboxymethylcellulose (CMC)",101 % of control
same,T/C,"dose: 24.0 mg/kg/injection, schedule: Q01DX015 (ip), vehicle: carboxymethylcellulose (CMC)",93 % of control
same,T/C,[2],88 % of control
same,T/C,"dose: 26.0 mg/kg/injection, schedule: Q01DX001 (ip), vehicle: alkali diluted with saline",97 % of control and 101 % of control
same,T/C,"dose: 27.0 mg/kg/injection, schedule: Q01DX015 (ip), vehicle: carboxymethylcellulose (CMC)",96 % of control and 100 % of control
same,T/C,"dose: 40.0 mg/kg/injection, schedule: Q01DX001 (ip), vehicle: alkali diluted with saline",96 % of control and 98 % of control (2×)
same,T/C,"dose: 40.0 mg/kg/injection, schedule: Q01DX001 (ip), vehicle: carboxymethylcellulose (CMC)",102 % of control and 109 % of control
same,T/C,"dose: 40.0 mg/kg/injection, schedule: Q01DX015 (ip), vehicle: alkali diluted with saline",103 % of control
same,T/C,"dose: 40.0 mg/kg/injection, schedule: Q01DX015 (ip), vehicle: carboxymethylcellulose (CMC)",92 % of control and 95 % of control
same,T/C,"dose: 42.0 mg/kg/injection, schedule: Q01DX Z (ip), vehicle: carboxymethylcellulose (CMC)",103 % of control
same,T/C,[3],91 % of control
same,T/C,"dose: 56.0 mg/kg/injection, schedule: Q01DX Z (ip), vehicle: carboxymethylcellulose (CMC)",93 % of control and 97 % of control
same,T/C,"dose: 59.0 mg/kg/injection, schedule: Q01DX001 (ip), vehicle: carboxymethylcellulose (CMC)",100 % of control
same,T/C,"dose: 60.0 mg/kg/injection, schedule: Q01DX001 (ip), vehicle: alkali diluted with saline",96 % of control (2×) and 106 % of control
same,T/C,"dose: 60.0 mg/kg/injection, schedule: Q01DX001 (ip), vehicle: carboxymethylcellulose (CMC)",108 % of control
same,T/C,"dose: 60.0 mg/kg/injection, schedule: Q01DX010 (ip), vehicle: alkali diluted with saline",94 % of control
same,T/C,"dose: 90.0 mg/kg/injection, schedule: Q01DX001 (ip), vehicle: alkali diluted with saline",87 % of control and 97 % of control and 103 % of control
same,T/C,"dose: 90.0 mg/kg/injection, schedule: Q01DX001 (ip), vehicle: carboxymethylcellulose (CMC)",99 % of control and 102 % of control
same,T/C,[4],91 % of control
same,T/C,"dose: 135.0 mg/kg/injection, schedule: Q01DX001 (ip), vehicle: alkali diluted with saline",96 % of control and 103 % of control and 105 % of control
same,T/C,"dose: 150.0 mg/kg/injection, schedule: Q01DX001 (ip), vehicle: carboxymethylcellulose (CMC)",96 % of control
same,T/C,"dose: 202.0 mg/kg/injection, schedule: Q01DX001 (ip), vehicle: alkali diluted with saline",99 % of control and 100 % of control and 102 % of control
same,T/C,"dose: 203.0 mg/kg/injection, schedule: Q01DX001 (ip), vehicle: carboxymethylcellulose (CMC)",95 % of control
OCC1OC(n2cnc3c(Cl)ncnc32)C(O)C1O (stereo not given),T/C,"dose: 62.5 mg/kg/injection, schedule: Q01DX Z (ip), vehicle: carboxymethylcellulose (CMC)",91 % of control
same,T/C,"dose: 125.0 mg/kg/injection, schedule: Q01DX Z (ip), vehicle: carboxymethylcellulose (CMC)",89 % of control
same,T/C,"dose: 250.0 mg/kg/injection, schedule: Q01DX Z (ip), vehicle: carboxymethylcellulose (CMC)",95 % of control
same,T/C,"dose: 500.0 mg/kg/injection, schedule: Q01DX Z (ip), vehicle: carboxymethylcellulose (CMC)",95 % of control
same,T/C,"dose: 1000.0 mg/kg/injection, schedule: Q01DX001 (ip), vehicle: carboxymethylcellulose (CMC)",92 % of control and 97 % of control
same,T/C,"dose: 1500.0 mg/kg/injection, schedule: Q01DX001 (ip), vehicle: carboxymethylcellulose (CMC)",94 % of control and 99 % of control
same,T/C,"dose: 2000.0 mg/kg/injection, schedule: Q01DX001 (ip), vehicle: carboxymethylcellulose (CMC)",94 % of control and 97 % of control
CCSc1ncc(Br)c(Sc2nc(N)nc3nc[nH]c23)n1,T/C,"dose: 1.5 mg/kg/injection, schedule: Q01DX015 (ip), vehicle: carboxymethylcellulose (CMC)",112 % of control
same,T/C,"dose: 3.0 mg/kg/injection, schedule: Q01DX015 (ip), vehicle: carboxymethylcellulose (CMC)",115 % of control
same,T/C,"dose: 6.0 mg/kg/injection, schedule: Q01DX015 (ip), vehicle: carboxymethylcellulose (CMC)",100 % of control
same,T/C,"dose: 12.5 mg/kg/injection, schedule: Q01DX015 (ip), vehicle: carboxymethylcellulose (CMC)",100 % of control
Oc1cc(CN(CCCl)CCCl)c(O)cc1CN(CCCl)CCCl,T/C,"dose: 0.5 mg/kg/injection, schedule: Q01DX Z (ip), vehicle: saline",173 % of control
same,T/C,"dose: 2.0 mg/kg/injection, schedule: Q01DX Z (ip), vehicle: carboxymethylcellulose (CMC)",153 % of control and 184 % of control
same,T/C,"dose: 4.0 mg/kg/injection, schedule: Q01DX Z (ip), vehicle: carboxymethylcellulose (CMC)",102 % of control and 108 % of control
CCCC(=O)OCC1OC(n2cnc3c(=S)nc[nH]c32)C(OC(=O)CCC)C1OC(=O)CCC (stereo not given),T/C,"dose: 6.25 mg/kg/injection, schedule: Q01DX Z (ip), vehicle: other",99 % of control
same,T/C,"dose: 12.5 mg/kg/injection, schedule: Q01DX Z (ip), vehicle: other",92 % of control
same,T/C,"dose: 25.0 mg/kg/injection, schedule: Q01DX009 (ip), vehicle: Klucel (hydroxypropylcellulose) (HPC)",92 % of control
same,T/C,"dose: 25.0 mg/kg/injection, schedule: Q01DX Z (ip), vehicle: other",90 % of control and 92 % of control
same,T/C,"dose: 50.0 mg/kg/injection, schedule: Q01DX009 (ip), vehicle: Klucel (hydroxypropylcellulose) (HPC)",98 % of control
same,T/C,"dose: 50.0 mg/kg/injection, schedule: Q01DX Z (ip), vehicle: other",96 % of control
same,T/C,"dose: 100.0 mg/kg/injection, schedule: Q01DX009 (ip), vehicle: Klucel (hydroxypropylcellulose) (HPC)",92 % of control
same,T/C,"dose: 100.0 mg/kg/injection, schedule: Q01DX Z (ip), vehicle: other",90 % of control
Cn1c(N)nc2nc[nH]c2c1=S,T/C,"dose: 18.75 mg/kg/injection, schedule: Q01DX Z (ip), vehicle: carboxymethylcellulose (CMC)",98 % of control
same,T/C,"dose: 37.5 mg/kg/injection, schedule: Q01DX Z (ip), vehicle: carboxymethylcellulose (CMC)",109 % of control
same,T/C,"dose: 75.0 mg/kg/injection, schedule: Q01DX Z (ip), vehicle: carboxymethylcellulose (CMC)",109 % of control
C=CCn1cnc2c(=S)nc[nH]c21,T/C,"dose: 18.0 mg/kg/injection, schedule: Q01DX015 (ip), vehicle: other",103 % of control
same,T/C,"dose: 26.0 mg/kg/injection, schedule: Q01DX015 (ip), vehicle: other",108 % of control
same,T/C,"dose: 40.0 mg/kg/injection, schedule: Q01DX015 (ip), vehicle: other",101 % of control
same,T/C,"dose: 60.0 mg/kg/injection, schedule: Q01DX015 (ip), vehicle: other",95 % of control
Clc1ncnc2nc[nH]c12,T/C,[1],97 % of control
same,T/C,[2],93 % of control
same,T/C,[3],92 % of control and 104 % of control
same,T/C,[4],90 % of control
same,T/C,"dose: 200.0 mg/kg/injection, schedule: Q01DX001 (ip), vehicle: carboxymethylcellulose (CMC)",99 % of control and 104 % of control
same,T/C,"dose: 200.0 mg/kg/injection, schedule: Q01DX Z (ip), vehicle: carboxymethylcellulose (CMC)",90 % of control
same,T/C,"dose: 267.0 mg/kg/injection, schedule: Q01DX001 (ip), vehicle: carboxymethylcellulose (CMC)",102 % of control and 107 % of control
same,T/C,"dose: 300.0 mg/kg/injection, schedule: Q01DX Z (ip), vehicle: carboxymethylcellulose (CMC)",88 % of control
same,T/C,"dose: 400.0 mg/kg/injection, schedule: Q01DX001 (ip), vehicle: carboxymethylcellulose (CMC)",100 % of control and 102 % of control
